Each structure is given as a SMILES string.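 In this assay, cells in 96-well plates receive the compound at five concentrations for 48 hours. Endpoints are linearly interpolated between the surrounding concentrations. GI50 = concentration required for 50% inhibition of growth.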 Calls of active or inactive are those of the source. Rule as the data show it: active = GI50 up to about 1.1 µM and inactive = higher.

Common to all, as to test: NCI anticancer screen, dose series, 48 h
The test system of assay [1] is HL-60.
Assay [2] concerns NCI-H522.
In assay [3] the test system is TK-10.
In assay [4] the test system is KM12.
Assay [5] deals with SNB-75.
Assay [6] relates to EKVX.
For assay [7], the system named is SW-620.
In assay [8] the test system is SK-MEL-28.
In assay [9] the test system is A498.
Assay [10] relates to Hs-578T.
Assay [11] deals with UO-31.
For assay [12], the system named is MDA-MB-435.
Assay [13] deals with 786-0.
Assay [14] concerns RXF 393.
The test system of assay [15] is M14.
For assay [16], the system named is SF-539.
For assay [17], the system named is SK-OV-3.
The test system of assay [18] is A549.
The test system of assay [19] is HOP-92.

Turning to `COc1ccc(-n2c(C)nc3ccc(NC4OC(COC(C)=O)C(OC(C)=O)C(OC(C)=O)C4OC(C)=O)cc3c2=O)cc1` (stereo not drawn), the GI50 is 20.3 µM (inactive) in assay [1]; 21.8 µM (inactive) in assay [2]; 55.1 µM (inactive) in assay [3]; > 100 µM (inactive) in assay [4]; > 100 µM (inactive) in assay [5]; > 100 µM (inactive) in [6]. Besides, the GI50 is 39.1 µM (inactive) in assay [7]; 34 µM (inactive) in [8]; > 100 µM (inactive) in assay [9]; 49.8 µM (inactive) in assay [10]; > 100 µM (inactive) in assay [11]; > 100 µM (inactive) in assay [12]. Also, the GI50 in [13] was 24.8 µM (inactive); in assay [14], 27.8 µM (inactive).

`CC(C)(C)C(=O)N(C(=S)OCc1ccccn1)c1ccccc1`: the GI50 in assay [1] is 19.9 µM (inactive); in [3], > 100 µM (inactive); in assay [4], 26.4 µM (inactive); in assay [15] it was 39.4 µM (inactive); in [16] it was 20.4 µM (inactive); in [6], 15.5 µM (inactive). For the same compound, the GI50 is 47.6 µM (inactive) in assay [7]; > 100 µM (inactive) in [17]; > 100 µM (inactive) in assay [8]; > 100 µM (inactive) in assay [9]; 39 µM (inactive) in assay [10]; 27.8 µM (inactive) in assay [11]. Besides, the GI50 in assay [12] is > 100 µM (inactive); in [13] it was 35.8 µM (inactive); in assay [14], 18.2 µM (inactive).

Regarding `CC/C=C/C[C@H](O)[C@H]1C[C@H]2O[C@H](CC(=O)OC)C[C@H]2O1`, the GI50 in assay [1], in assay [2], in assay [4], in assay [15], in assay [5] and in assay [6] was > 100 µM (inactive) each time. The GI50 in assay [7], in [17], in [8], in [9], in [10] and in [11] was > 100 µM (inactive) in each case. The GI50 in assay [18], in assay [12], in assay [13] and in assay [14] was > 100 µM (inactive) each time.

Turning to `CC(C)N/C(=N\C#N)NS(=O)(=O)c1cnccc1Nc1ccc(Cl)cc1`, the GI50 in assay [2], in assay [3], in assay [4], in assay [15], in assay [5] and in [6] was > 100 µM (inactive) each time. Also, the GI50 in [7], in [17], in assay [8], in assay [9], in assay [10] and in [11] was > 100 µM (inactive) throughout. Further, the GI50 in assay [18], in assay [12], in assay [13] and in assay [14] was > 100 µM (inactive) each time.

With `COc1cccc(/C=N/C(/N=C/c2cccc(OC)c2O)c2cccc(OC)c2O)c1O`, the GI50 in assay [19] is 31.7 µM (inactive); in assay [1], 25.9 µM (inactive); in assay [2], 21.8 µM (inactive); in assay [3], 15.7 µM (inactive); in assay [4], 22.6 µM (inactive); in assay [15] it was 17.1 µM (inactive). Also, the GI50 in assay [16] was 20.1 µM (inactive); in assay [5], 13.9 µM (inactive); in assay [6], 19.2 µM (inactive); in [7], 27.5 µM (inactive); in assay [17], 26 µM (inactive); in assay [8], 18.7 µM (inactive). Further, the GI50 in assay [10] is 17.6 µM (inactive); in [11], 20.1 µM (inactive); in assay [18] it was 26.7 µM (inactive); in assay [12], 28.3 µM (inactive); in [13], 23.3 µM (inactive); in assay [14], 8.39 µM (inactive).

With `CS/C(=N\C#N)S/C=C/C(=O)c1ccc(Cl)cc1`, the GI50 in assay [19] is 88.5 µM (inactive); in assay [1], 8.15 µM (inactive); in assay [2], 18.3 µM (inactive); in assay [3] it was 23.6 µM (inactive); in assay [4] it was 45.7 µM (inactive); in [15], 22.3 µM (inactive). Further, the GI50 was 20.8 µM (inactive) in [16]; 43 µM (inactive) in [5]; 66.5 µM (inactive) in assay [6]; 15.6 µM (inactive) in assay [7]; 42.7 µM (inactive) in [17]; 20.6 µM (inactive) in assay [8]. In addition, the GI50 in assay [10] is 32.7 µM (inactive); in assay [11], 18.3 µM (inactive); in assay [18] it was > 100 µM (inactive); in assay [12] it was 24.9 µM (inactive); in assay [13], 20.8 µM (inactive); in [14], 19.6 µM (inactive).

For `CCOC(=O)c1sc2c(c1O)c(=O)n(-c1ccccc1)c(=S)n2-c1ccccc1`, the GI50 in assay [19] was 86.1 µM (inactive); in assay [1] it was 35.1 µM (inactive); in assay [2], 46.6 µM (inactive); in [3], > 100 µM (inactive); in [4], 46.7 µM (inactive); in assay [15], > 100 µM (inactive). In addition, the GI50 was 37.5 µM (inactive) in assay [5]; 99.3 µM (inactive) in assay [7]; > 100 µM (inactive) in assay [8]; > 100 µM (inactive) in assay [10]; 87.3 µM (inactive) in assay [11]; 55.3 µM (inactive) in assay [18]. Besides, the GI50 in assay [12], in assay [13] and in assay [14] was > 100 µM (inactive) throughout.

As for `CCCCCCCCCc1c(O)c(O)c(CCCCCCCCC)c(CCCCCCCCC)c1CCCCCCCCC`, the GI50 in assay [1] was 26.4 µM (inactive); in [2] it was 30.2 µM (inactive); in assay [3] it was > 100 µM (inactive); in [4], > 100 µM (inactive); in [15], > 100 µM (inactive); in assay [16] it was > 100 µM (inactive). The GI50 in assay [6], in assay [7], in assay [17], in assay [8], in assay [9] and in assay [10] was > 100 µM (inactive) each time. Besides, the GI50 in assay [18] is > 100 µM (inactive); in assay [12], 47.2 µM (inactive); in [13] it was > 100 µM (inactive); in assay [14], > 100 µM (inactive).

For `Fc1ccccc1CN1COc2c(cc(Cl)c3cccnc23)C1`, the GI50 is 3.61 µM (inactive) in assay [19]; 0.265 µM (active) in [1]; 2.68 µM (inactive) in assay [2]; 3.09 µM (inactive) in assay [3]; 2.23 µM (inactive) in assay [4]; 2.05 µM (inactive) in [15]. The GI50 in assay [16] is 1.22 µM (inactive); in assay [5], 1.56 µM (inactive); in [6], 0.378 µM (active); in [7], 3.08 µM (inactive); in assay [17] it was 6 µM (inactive); in assay [8], 4.25 µM (inactive). Also, the GI50 in assay [10] was 3.15 µM (inactive); in assay [11], 0.653 µM (active); in assay [18], 2.16 µM (inactive); in assay [12], 2.54 µM (inactive); in assay [13], 2.65 µM (inactive); in [14], 13.9 µM (inactive).

For `Cc1n2nc(N)sc2n[n+]1Cc1ccccc1`, the GI50 in assay [2], in assay [3], in [4], in assay [15], in [16] and in [5] was > 100 µM (inactive) throughout. Besides, the GI50 in assay [6] was 97.5 µM (inactive); in [7], > 100 µM (inactive); in assay [17] it was > 100 µM (inactive); in assay [8], > 100 µM (inactive); in assay [9], > 100 µM (inactive); in [10], > 100 µM (inactive). In addition, the GI50 in assay [11] was > 100 µM (inactive); in assay [18], 70.6 µM (inactive); in assay [12], > 100 µM (inactive); in assay [13], > 100 µM (inactive); in assay [14], > 100 µM (inactive).

As for `C=CC1(c2ccc3ccccc3c2)OCC(CC)(CC)CO1`, the GI50 in assay [19] is 23.4 µM (inactive); in assay [1] it was 21.6 µM (inactive); in [2], 24.5 µM (inactive); in assay [3], 37.5 µM (inactive); in assay [4] it was 20.8 µM (inactive); in assay [15], 19.9 µM (inactive). Besides, the GI50 in assay [16] is 14.3 µM (inactive); in assay [5], 47.6 µM (inactive); in assay [7] it was 14.9 µM (inactive); in assay [17] it was 53.1 µM (inactive); in [8] it was 39.4 µM (inactive); in assay [10], 18.7 µM (inactive). For the same compound, the GI50 is 32.7 µM (inactive) in assay [11]; 33.9 µM (inactive) in assay [18]; 22.7 µM (inactive) in assay [12]; 20.2 µM (inactive) in assay [13]; 20 µM (inactive) in assay [14].

As for `CC12ON(P(=O)(c3ccccc3)c3ccccc3)C(C)(c3ccccc31)c1ccccc12`, the GI50 in assay [19] is > 100 µM (inactive); in assay [1], 55.6 µM (inactive); in assay [2], > 100 µM (inactive); in [3], > 100 µM (inactive); in [4], > 100 µM (inactive); in assay [15], > 100 µM (inactive). The GI50 in assay [16], in assay [5], in assay [6], in assay [7], in assay [17] and in assay [8] was > 100 µM (inactive) in each case. The GI50 in assay [10] is > 100 µM (inactive); in [11], > 100 µM (inactive); in assay [18] it was > 100 µM (inactive); in assay [12] it was > 100 µM (inactive); in assay [13], > 100 µM (inactive); in [14], 81.7 µM (inactive).
